# Read-outs that look alike come from different tables or passages of the source.
# Legend:
# [1] = test system: PAXF1657 control empty vector cell line; assay: 7-day proliferation assay, PAXF1657 control empty vector cell line (Example 9); format: cell-based; conditions: 168 h; Cell Line: PAXF1657 empty vector (EV) cell line; 7-day; read-out: C: 7-day proliferation assay: IC50 GeoMean
# Description: In order to identify compounds specific for GRK2, we generated two isogenic cell line pairs of the pancreatic cancer cell line PAXF1657, a pair of cells stably overexpressing GRK2 cDNA or the control empty vector and a cell line pair of PAXF1657 GRK2 knockout clonal cells versus non-targeting control clonal cells.
# Proliferation Assay: Cellular anti-proliferative activity of compounds was assessed by using the pancreatic cancer cell line, PAXF1657, stably overexpressing GRK2 cDNA or the control empty vector, as well as the parental urinary bladder cancer cell line, 5637. In addition, we also took advantage of GRK2 knockout cell lines that were generated via CRISPR. Cell lines were seeded into tissue culture treated, white-walled, 96-well plates at a density of 500 cells/well in RPMI1640 media supplemented with 10% H.I. FBS and penicillin/streptomycin. Plates were incubated overnight at 37° C., 5% CO2 to allow cells to adhere to the wells. GRK2 inhibitors were added to the cells using a 10-point dilution series with a final concentration ranging from 30 μM-0.0002 μM in 0.3% DMSO. At the time of compound addition, a set of plates, that were not treated with compounds, were collected and cell viability was measured using CellTiter-Glo (Promega). CellTiter-Glo reagent was added to the designed plates and luminescence was measuring using a Biotek Synergy plate reader. The compound treated cells were incubated for 3 days at 37° C., 5% CO2. The media was then aspirated from each well and replaced with fresh media containing GRK2 inhibitors. The compound treated cells were then incubated for an additional 4 days at 37° C., 5% CO2. Cell viability was assessed and at end of the 7-day compound treatment by CellTiterGlo.
# GRK2 = biological target: T1, GRK2 (Homo sapiens, UniProt P25098); assay: ADPGlo GRK2 Inhibition Assay (Example 8); format: biochemical
# T1 construct: purchased SignalChem A14-10G
# T1 sequence (P25098 1-689): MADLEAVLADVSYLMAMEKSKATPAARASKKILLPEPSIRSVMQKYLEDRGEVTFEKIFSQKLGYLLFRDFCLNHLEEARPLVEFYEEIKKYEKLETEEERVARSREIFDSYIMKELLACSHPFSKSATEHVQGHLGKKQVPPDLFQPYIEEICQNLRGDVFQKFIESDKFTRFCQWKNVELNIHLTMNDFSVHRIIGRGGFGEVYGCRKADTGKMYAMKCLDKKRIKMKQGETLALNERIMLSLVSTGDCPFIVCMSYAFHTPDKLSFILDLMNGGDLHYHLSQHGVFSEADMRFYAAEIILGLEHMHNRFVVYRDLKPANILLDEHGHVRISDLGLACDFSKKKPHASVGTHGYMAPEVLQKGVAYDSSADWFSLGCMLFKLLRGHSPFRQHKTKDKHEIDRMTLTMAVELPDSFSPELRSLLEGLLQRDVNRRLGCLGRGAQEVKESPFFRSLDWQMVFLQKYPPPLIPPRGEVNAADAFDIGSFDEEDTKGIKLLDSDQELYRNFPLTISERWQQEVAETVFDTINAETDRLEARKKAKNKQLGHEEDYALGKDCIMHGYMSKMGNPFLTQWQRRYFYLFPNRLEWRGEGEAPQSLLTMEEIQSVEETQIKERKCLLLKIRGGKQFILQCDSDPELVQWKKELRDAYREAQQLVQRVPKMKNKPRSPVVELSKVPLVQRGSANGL
# In short: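 GRK2 (15 nM 2× enzyme solution) was preincubated 15 min with compound, then reacted 180 min at room temperature with 2× mix of 20 μM ATP plus GRKtide in HEPES pH 7.5, MgCl2, Tween-20, DTT. ADP was detected by ADP-Glo luminescence. Percent inhibition was normalised to enzyme and no-enzyme controls, with dose-response curves from threefold dilutions starting at 100 μM.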
# [2] = Enzyme Assay A, ADPGlo (Example 8), read-out: A: Enzymatic GRK2: IC50 (nM) (Example 8)
# [3] = ADPGlo GRK2 enzyme assay, read-out: A: Enzymatic GRK2: IC50 (nM) (Example 8)
# [4] = 7.5 nM GRK2, 10 μM ATP, ADP-Glo, read-out: GRK2 IC50 (nM) (Example 8)
SMILES,IC50 [1],IC50 (GRK2; [2]),IC50 (GRK2; [3]),also measured
Cn1c(CNc2cccc(C(=O)NCc3ccncc3Cl)c2)nnc1-c1ccncn1 [drawing 276],4060 nM,9.1 nM,–,–
O=C(N[C@@H]1COCc2ccccc21)c1cccc(NCc2nnc(-c3ccncn3)n2CCO)c1,592 nM,1.47 nM,–,–
CC(NC(=O)c1cccc(NCc2nnc(-c3ccncn3)n2C)c1)c1ccn(C)n1 (stereo not shown),2150 nM,27 nM,–,–
COCC(NC(=O)c1cccc(NCc2nnc(-c3ccncn3)n2C)c1)c1ccccc1 (stereo not shown),> 10000 nM,36 nM,–,–
O=C(NC1(c2ccncn2)CC1)c1cccc(NCc2nnc(-c3ccncc3)[nH]2)c1,> 10000 nM,13 nM,–,–
Cn1c(CNc2cccc(C(=O)NCc3ccc(C(F)F)cc3)c2)nnc1-c1ccncn1,> 13100 nM,–,64.2 nM,–
[2H]C([2H])(Nc1cccc(C(=O)N[C@H]2CCOc3ccccc32)c1)c1nnc(-c2ccncn2)n1CCO,94 nM,–,3.23 nM,–
CC1Cc2cc(CNC(=O)c3cccc(NCc4nnc(-c5ccncn5)n4C)c3)ccc2O1 (stereo not shown) [drawing 401],3370 nM,22 nM,–,–
Cn1c(CNc2cccc(C(=O)NCc3ccccc3-n3ccnc3)c2)nnc1-c1ccncn1,1150 nM,–,30 nM,–
Cn1c(CNc2cccc(C(=O)N[C@@H]3CCOc4c(Cl)cccc43)c2)nnc1-c1ccncc1,> 865 nM,27.5 nM,–,–
Cn1c(CNc2cccc(C(=O)NC3COc4cc(F)ccc43)c2)nnc1-c1ccncn1 (stereo not shown),547 nM,–,35.4 nM,–
O=C(NCc1cncc(F)c1)c1cccc(NCc2nnc(-c3ccncc3)[nH]2)c1,> 10000 nM,17 nM,–,–
Cc1ccc(C#N)cc1CNC(=O)c1cccc(NCc2nnc(-c3ccncn3)n2CCO)c1,> 30000 nM,–,3.22 nM,–
Cn1c(CNc2cccc(C(=O)NCc3ccc4c(c3)CCO4)c2)nnc1-c1ccncn1,1670 nM,16 nM,–,–
O=C(NC1CCCc2nccnc21)c1cccc(NCc2nnc(-c3ccncc3)[nH]2)c1 (stereo not shown),736 nM,12 nM,–,–
Cn1c(CNc2cc(C(=O)N[C@H]3COCc4ccccc43)ccn2)nnc1-c1ccncn1,11000 nM,–,71.1 nM,–
O=C(NC(CO)c1ccccn1)c1cccc(NCc2nnc(-c3ccncc3)[nH]2)c1 (stereo not shown),> 10000 nM,20 nM,–,–
CCOc1cccc(CNC(=O)c2cccc(NCc3nnc(-c4ccncn4)n3C)c2)c1,> 30000 nM,–,73.6 nM,–
Cn1c(CNc2cccc(C(=O)NCc3cccc4ncccc34)c2)nnc1-c1ccncn1,> 10000 nM,11 nM,–,–
Cn1c(CNc2cccc(C(=O)NC3COc4ccccc4C3)c2)nnc1-c1ccncn1 (stereo not shown),> 12600 nM,–,68.4 nM,–
Cn1c(CNc2cccc(C(=O)N[C@H]3CCOc4c(F)cccc43)c2)nnc1-c1ccncn1,1230 nM,11 nM,–,–

SMILES,IC50 [1],IC50 (GRK2; [2]),IC50 (GRK2; [3]),also measured
CC(NC(=O)c1cccc(NCc2nnc(-c3ccncn3)n2C)c1)c1ncccc1F (stereo not shown),2660 nM,–,69 nM,–
CCn1ncnc1CNC(=O)c1cccc(NCc2nnc(-c3ccncn3)n2C)c1,> 10000 nM,370 nM,–,–
CC(NC(=O)c1cccc(NCc2nnc(-c3ccncn3)n2C)c1)c1ccccc1NS(C)(=O)=O (stereo not shown),–,–,68 nM,–
CC(C)C(NC(=O)c1cccc(NCc2nnc(-c3ccncn3)n2C)c1)c1nccn1C (stereo not shown),–,–,152 nM,–
Cn1c(CNc2cccc(C(=O)NCc3ccc(-n4ccnn4)cc3)c2)nnc1-c1ccncn1 [compound 58],–,–,–,IC50 (GRK2; [4]): 9.5 nM
Cn1c(CNc2cccc(C(=O)NC3CNCCc4ccccc43)c2)nnc1-c1ccncn1 (stereo not shown),–,–,142 nM,–
CNS(=O)(=O)c1ccccc1CNC(=O)c1cccc(NCc2nnc(-c3ccncn3)n2C)c1,–,–,62.5 nM,–
Cn1c(CNc2cccc(C(=O)NCc3cc(F)ccc3F)c2)nnc1-c1ccncn1,–,27 nM,–,–
Cn1c(CNc2cccc(C(=O)NC3CCCS(=O)(=O)c4ccccc43)c2)nnc1-c1ccncn1 (stereo not shown),–,–,194 nM,–
COc1ccc([C@H](C)NC(=O)c2cccc(NCc3nnc(-c4ccncn4)n3C)c2)c(OC)c1,–,–,310 nM,–
Cn1c(CNc2cccc(C(=O)NC(CO)c3ccccc3F)c2)nnc1-c1ccncn1 (stereo not shown),–,60 nM,–,–
CC(O)C(NC(=O)c1cccc(NCc2nnc(-c3ccncn3)n2C)c1)c1ccccc1F (stereo not shown),–,–,209 nM,–
Cn1c(CNc2cccc(C(=O)N[C@H]3COCc4ccccc43)c2)nnc1-c1ccncc1,–,100 nM,–,–
CC(NC(=O)c1cccc(NCc2nnc(-c3ccncn3)n2C)c1)c1c[nH]cn1 (stereo not shown) [compound 52],–,–,–,IC50 (GRK2; [4]): 5.7 nM
Cc1cccc([C@H](C)NC(=O)c2cccc(NCc3nnc(-c4ccncn4)n3C)c2)n1,–,95 nM,–,–
CNc1cccnc1CNC(=O)c1cccc(NCc2nnc(-c3ccncn3)n2C)c1,–,–,133 nM,–
Cn1c(CNc2cccc(C(=O)NCc3cnn(C(C)(C)C)c3)c2)nnc1-c1ccncn1,–,–,135 nM,–
C#COc1ccc(C(=O)c2ccc(OCCCCC(=O)NCCOCCOCCOc3cccc(CNC(=O)c4cccc(NCc5nnc(-c6ccncn6)n5C)c4)c3)cc2)cc1,–,–,> 1000 nM,–
Cn1c(CNc2cccc(C(=O)NC3(c4ncc[nH]4)CC3)c2)nnc1-c1ccncn1,–,–,748 nM,–
Cn1c(CNc2cccc(C(=O)NCc3cccc(C#N)c3)c2)nnc1-c1ccncn1 [compound 43],–,–,–,IC50 (GRK2; [4]): 2.7 nM
Cn1c(CNc2cccc(C(=O)NC3CCCc4[nH]c(=O)ccc43)c2)nnc1-c1ccncn1 (stereo not shown),–,–,392 nM,–

SMILES,IC50 [1],IC50 (GRK2; [2]),IC50 (GRK2; [3]),also measured
CN1CCN(S(=O)(=O)c2ccccc2CNC(=O)c2cccc(NCc3nnc(-c4ccncn4)n3C)c2)CC1,–,–,344 nM,–
Cn1c(CNc2cccc(C(=O)NC(C)(CO)c3ccccn3)c2)nnc1-c1ccncn1 (stereo not shown),–,–,511 nM,–
Cn1c(CNc2cccc(C(=O)NCc3ccc(O)c(F)c3)c2)nnc1-c1ccncn1,–,–,118 nM,–
Cn1c(CNc2cccc(C(=O)NC(CCO)c3ccc(F)cc3)c2)nnc1-c1ccncn1 (stereo not shown),–,52 nM,–,–
Cn1c(CNc2cccc(C(=O)NCc3ccc4nccn4c3)c2)nnc1-c1ccncn1 [compound 40],–,–,–,IC50 (GRK2; [4]): 1.7 nM
Cn1c(CNc2cccc(C(=O)NCc3ccncc3Cl)c2)nnc1-c1ccncc1F,–,–,31.9 nM,–
CCC[C@H](NC(=O)c1cccc(NCc2nnc(-c3ccncn3)n2C)c1)c1ccccn1 [compound 21],–,–,–,IC50 (GRK2; [4]): 67 nM
Cn1c(CNc2cccc(C(=O)NCc3ccncc3OCC3CCOC3)c2)nnc1-c1ccncn1 (stereo not shown),–,–,871 nM,–
Cn1c(CNc2cccc(C(=O)NC(CO)c3cc(F)ccc3F)c2)nnc1-c1ccncn1 (stereo not shown) [compound 62],–,–,–,IC50 (GRK2; [4]): 10 nM
Cn1c(CNc2cccc(C(=O)N[C@@H]3COc4cc(F)ccc43)c2)nnc1-c1ccncc1,–,143 nM,–,–
O=C(NCc1ccccn1)c1cccc(NCc2nnc(-c3ccncc3)[nH]2)c1,–,36 nM,–,–
Cc1cc2c(cc1CNC(=O)c1cccc(NCc3nnc(-c4ccncc4F)n3C)c1)OCCO2,–,–,8 nM,–
CCc1ccc(CNC(=O)c2cccc(NCc3nnc(-c4ccncn4)n3C)c2)nc1,–,–,271 nM,–
Cn1c(CNc2cccc(C(=O)NC3(CO)CCc4ccccc43)c2)cnc1-c1ccncn1 (stereo not shown),–,–,929 nM,–
Cn1c(CNc2cc(C(=O)N[C@@H]3COc4cc(F)ccc43)ccn2)nnc1-c1ccncn1,–,–,37.5 nM,–
Cn1c(CNc2cccc(C(=O)NC3CCOc4cccnc43)c2)nnc1-c1ccncn1 (stereo not shown) [compound 60],–,–,–,IC50 (GRK2; [4]): 9.6 nM
Cn1c(CNc2cccc(C(=O)NCc3ccc4c(c3)CCN4)c2)nnc1-c1ccncn1 [compound 57],–,–,–,IC50 (GRK2; [4]): 9.4 nM
Cc1ccc(C(CO)NC(=O)c2cccc(NCc3nnc(-c4ccncn4)n3C)c2)cc1 (stereo not shown) [compound 46],–,–,–,IC50 (GRK2; [4]): 3.3 nM
CCN1CCN(Cc2ccccc2CNC(=O)c2cccc(NCc3nnc(-c4ccncn4)n3C)c2)CC1,–,–,267 nM,–
CN1CCN(c2ncccc2CNC(=O)c2cccc(NCc3nnc(-c4ccncn4)n3C)c2)CC1,–,–,289 nM,–

# Reference: US20230009608A1, “GRK2 INHIBITORS AND USES THEREOF” (Cygnal Therapeutics, Inc., priority 2020, published 2023)
